Test results from ChEMBL document CHEMBL4513160, “CO-ADD screening of MMV (CH) - Small Polar Library”.
Values after ≈ are worked out from the molar mass of the structure shown.

Experiments:
Pseudomonas aeruginosa [1] = assay: Antibacterial activity against Pseudomonas aeruginosa PAO397 [PAO1 d(mexAB-oprM) d(mexCD-oprJ) d(mexEF-oprN) d(mexJKL) d(mexXY) d(opmH)] (CO-ADD:GN_211); MIC in CAMBH media using NBS plates, by OD(600); assay type: functional; details: ASSAY_TEST Inhibition of Bacterial Growth, detection method Absorption (OD600), MEDIA CAMHB, plate type 384well, CORNING #3640, time 18 hr
Pseudomonas aeruginosa [2] = assay: microbe, parasite or virus in culture; details: ATCC 27853, 18 h, ASSAY_TEST Inhibition of Bacterial Growth, detection method Absorption (OD600), MEDIA CAMHB, plate type 384well, NBS, CORNING #3640
Description: Antibacterial activity against Pseudomonas aeruginosa ATCC 27853 (CO-ADD:GN_042); MIC in CAMBH media using NBS plates, by OD(600)

Acinetobacter baumannii = assay: microbe, parasite or virus in culture; details: ATCC 19606, 18 h, ASSAY_TEST Inhibition of Bacterial Growth, detection method Absorption (OD600), MEDIA CAMHB, plate type 384well, NBS, CORNING #3640
Description: Antibacterial activity against Acinetobacter baumannii ATCC 19606 (CO-ADD:GN_034); MIC in CAMBH media using NBS plates, by OD600

SMILES	MIC (Pseudomonas aeruginosa [1])	MIC (Pseudomonas aeruginosa [2])	MIC (Acinetobacter baumannii)
CC(C)NC(=O)NCC1(N2CCOCC2)CCSC1 (configuration not stated)	> 300 µM	> 300 µM	> 300 µM
CN(C)C(=O)CNC(=O)NCc1cc(F)ccc1Br	> 300 µM	> 300 µM	> 300 µM
CCCOc1ccc(CN)cc1	> 300 µM	> 300 µM	> 300 µM
c1cc2c(cc1C1=NN=C(NC3CC3)SC1)OCCO2	> 300 µM	> 300 µM	> 300 µM
CS(=O)(=O)CCNc1ccnc2ccc(Br)cc12	> 300 µM	> 300 µM	> 300 µM
CC[C@H](CO)Nc1ccnc2cc(Br)cnc12	> 300 µM	> 300 µM	> 300 µM
CN(CCOc1ccc(Cl)cc1)C(=O)C(C)(C)CN	> 300 µM	> 300 µM	> 300 µM
NCC(=O)N1CCCC(CCc2ccc(F)c(F)c2)C1 (configuration not stated)	> 300 µM	> 300 µM	> 300 µM
NCCNC(=O)c1ccc(-c2ccc(Cl)cc2)s1	90 µM (≈ 25.3 µg/mL)	300 µM (≈ 84.2 µg/mL)	> 300 µM
CCC(C)(C)NC(=O)c1nnn(-c2ccccc2)c1C	> 300 µM	> 300 µM	> 300 µM
O=C(CSCCO)Nc1ncc(-c2ccccc2)s1	200 µM (≈ 58.9 µg/mL)	> 300 µM	> 300 µM
CC(=O)Nc1ccc(-c2ccc(C#N)nc2)cc1	> 300 µM	> 300 µM	> 300 µM
N#Cc1nnc(-c2ccccc2)o1	> 300 µM	> 300 µM	> 300 µM
OC1(CNCc2ccc(Br)c3cccnc23)CCOC1 (configuration not stated)	> 300 µM	> 300 µM	> 300 µM
COCC(O)CNc1c(C)c(C)nc2ccccc12 (configuration not stated)	> 300 µM	> 300 µM	> 300 µM
Cn1c(CN)nc2cc(Cl)ccc21	> 300 µM	> 300 µM	> 300 µM
O=C(Nc1ccncc1)c1coc(Br)c1	> 300 µM	> 300 µM	> 300 µM
CCS(=O)(=O)NCC(N)c1ccc(C(C)C)cc1 (configuration not stated)	> 300 µM	> 300 µM	> 300 µM
O=C(NC[C@H]1CCCN1)c1ccc2cccc(Cl)c2n1	300 µM (≈ 86.9 µg/mL)	> 300 µM	> 300 µM
CCc1nnc(NC(=O)c2cc(OC)ccn2)s1	> 300 µM	> 300 µM	> 300 µM
FC(F)Oc1cccc(N2CCNCC2)c1	> 300 µM	> 300 µM	> 300 µM

SMILES	MIC (Pseudomonas aeruginosa [1])	MIC (Pseudomonas aeruginosa [2])	MIC (Acinetobacter baumannii)
Cc1c(C(=O)NC2=NCCS2)oc2ccccc12	> 300 µM	> 300 µM	> 300 µM
NS(=O)(=O)NCCCc1ccc(Br)cc1F	> 300 µM	> 300 µM	> 300 µM
NC1CCN(c2ccccc2F)CC1	> 300 µM	> 300 µM	> 300 µM
OCC1(O)CCCN(c2ccnc3ccc(Cl)cc23)C1 (configuration not stated)	> 300 µM	> 300 µM	> 300 µM
NCC(CO)Cc1ccc(Br)cc1 (configuration not stated)	> 300 µM	> 300 µM	> 300 µM
Cc1ccc(C(=O)NCc2ccnc(N(C)C)c2)s1	> 300 µM	> 300 µM	> 300 µM
CN(Cc1ccc(Cl)cc1)C(=O)C1CCNC1 (configuration not stated)	> 300 µM	> 300 µM	> 300 µM
COc1ccc(-c2ccnc(CO)c2)c(OC)c1	> 300 µM	> 300 µM	> 300 µM
OC1(Cn2ccnn2)CCCNC1 (configuration not stated)	> 300 µM	> 300 µM	> 300 µM
Cc1nnc(SCC(=O)NCCCc2csc(N)n2)s1	> 300 µM	> 300 µM	> 300 µM
COc1cccc(CNCc2ccccn2)c1	> 300 µM	> 300 µM	> 300 µM
O=C(NCCO)Nc1nc2ccccc2s1	> 300 µM	> 300 µM	> 300 µM
CCC(C#N)NC(=O)c1cnc(OC(C)C)c(Cl)c1 (configuration not stated)	> 300 µM	> 300 µM	> 300 µM
Cn1cc(CC(=O)Nc2ccc(I)cn2)cn1	> 300 µM	> 300 µM	> 300 µM
CCOC(=O)C(CN)CC(C)C (configuration not stated)	> 300 µM	> 300 µM	> 300 µM
CC1COC2(CCN(C(=O)c3ccc(Cl)s3)CC2)O1 (configuration not stated)	> 300 µM	> 300 µM	> 300 µM
O=C(Nc1cc[nH]n1)c1csc(I)c1	> 300 µM	> 300 µM	> 300 µM
NCc1cnn(-c2cccc(Cl)c2)c1	> 300 µM	> 300 µM	> 300 µM
COc1cccc2c(N)c(C)cnc12	> 300 µM	> 300 µM	> 300 µM
CNC(=O)Cn1cc(-c2cccc3cnccc23)cn1	> 300 µM	> 300 µM	> 300 µM
CCc1c(C)nc2sc(C(N)=O)c(N)c2c1C	> 300 µM	> 300 µM	> 300 µM

SMILES	MIC (Pseudomonas aeruginosa [1])	MIC (Pseudomonas aeruginosa [2])	MIC (Acinetobacter baumannii)
Cc1ccc(C(N)c2ccccn2)cc1 (configuration not stated)	> 300 µM	> 300 µM	> 300 µM
CN1CCCN(c2nc3ccccc3cc2CO)CC1	> 300 µM	> 300 µM	> 300 µM
O=C(CSc1ncn[nH]1)Nc1ncc(Br)s1	> 300 µM	> 300 µM	> 300 µM
COC(CN)CC(C)C (configuration not stated)	> 300 µM	> 300 µM	> 300 µM
CC(CO)NC(=O)Nc1nc(-c2ccccc2)ns1 (configuration not stated)	200 µM (≈ 55.7 µg/mL)	> 300 µM	> 300 µM
COc1ccc(OC)c(NC(=O)c2ccccn2)c1	> 300 µM	> 300 µM	> 300 µM
CCOc1cc(Cl)ccc1CN	> 300 µM	> 300 µM	> 300 µM
Cc1cc(C(=O)Nc2ccc3c(c2)CCN3)n(C)n1	> 300 µM	> 300 µM	> 300 µM
NCC1CCN(Cc2cccc(F)c2)CC1	> 300 µM	> 300 µM	> 300 µM
Cc1cc(N2CCN(CCO)CC2)nc2ccccc12	> 300 µM	> 300 µM	> 300 µM
OCc1ccncc1NCc1coc2ccccc12	> 300 µM	> 300 µM	> 300 µM
CCc1cccc2c1OCCC2N (configuration not stated)	> 300 µM	> 300 µM	> 300 µM
CC(CSc1n[nH]c(-c2ccccn2)n1)CS(C)(=O)=O (configuration not stated)	> 300 µM	> 300 µM	> 300 µM
Cc1ccc(C(=O)N2CCN(c3nccs3)CC2)o1	> 300 µM	> 300 µM	> 300 µM
NCc1cccc(-c2nccs2)c1	> 300 µM	> 300 µM	> 300 µM
COCC(C)NCc1ccccc1CN1CCCC1=O (configuration not stated)	> 300 µM	> 300 µM	> 300 µM
Cc1ccc(C2(O)CCNC2)cc1 (configuration not stated)	> 300 µM	300 µM (≈ 53.2 µg/mL)	> 300 µM
C[C@@]1(N)C[C@H]1c1ccccc1	200 µM (≈ 29.4 µg/mL)	> 300 µM	> 300 µM
Clc1cccnc1N1CCC(Nc2cccnc2)CC1	> 300 µM	> 300 µM	> 300 µM
CN(C)c1ccc(-c2[nH][nH]c(=O)c2CCN)cc1	> 300 µM	> 300 µM	> 300 µM
CCCNc1nc(C)c(C(C)=O)s1	200 µM (≈ 39.7 µg/mL)	> 300 µM	> 300 µM

SMILES	MIC (Pseudomonas aeruginosa [1])	MIC (Pseudomonas aeruginosa [2])	MIC (Acinetobacter baumannii)
NCC1Cc2ccccc21 (configuration not stated)	> 300 µM	> 300 µM	> 300 µM
Cn1cc(NC(=O)c2ccc(Br)s2)cc1C(N)=O	> 300 µM	> 300 µM	> 300 µM
NCCS(=O)(=O)N1CCCc2ccccc21	> 300 µM	> 300 µM	> 300 µM
Cc1ccc2c(N)noc2n1	135 µM (≈ 20.1 µg/mL)	135 µM (≈ 20.1 µg/mL)	> 300 µM
Cc1ccc(C)c2c(=O)cc(CN3CCC(N)C3)[nH]c12 (configuration not stated)	> 300 µM	> 300 µM	> 300 µM
Ic1nnnn1-c1ccccc1	25 µM (≈ 6.8 µg/mL)	60 µM (≈ 16.3 µg/mL)	> 300 µM
N#CC(c1ccc(Br)cc1)N1CCNCC1 (configuration not stated)	> 300 µM	> 300 µM	> 300 µM
CC(C)CNC(=O)CSc1n[nH]c(-c2ccccn2)n1	60 µM (≈ 17.5 µg/mL)	> 300 µM	> 300 µM
COc1ccc(F)c(N2CCNCC2)c1	> 300 µM	> 300 µM	> 300 µM
NC(=O)Nc1cccc(C(=O)Nc2ccc(Cl)cn2)c1	> 300 µM	> 300 µM	> 300 µM
Cc1cc(NC(C)CO)nc2ccccc12 (configuration not stated)	> 300 µM	> 300 µM	> 300 µM
Cc1cscc1C(=O)Nc1ncnn1C	> 300 µM	> 300 µM	> 300 µM
c1ccc(N2CCN(c3ncccn3)CC2)nc1	> 300 µM	> 300 µM	> 300 µM
COc1cccc(-c2ncc(CN)s2)c1	> 300 µM	> 300 µM	> 300 µM
Cc1cccc(OCCc2noc(C3CNC3)n2)c1	200 µM (≈ 51.9 µg/mL)	> 300 µM	> 300 µM
CCOc1ncc(C(=O)NCC(C)(O)C(C)C)cc1Cl (configuration not stated)	> 300 µM	> 300 µM	> 300 µM
O=C1NC(Cc2ccccc2)C(=O)Nc2ccccc21 (configuration not stated)	> 300 µM	> 300 µM	> 300 µM
CN(C)c1nc(Cl)c(CN)s1	200 µM (≈ 38.3 µg/mL)	200 µM (≈ 38.3 µg/mL)	> 300 µM
CC(C)(N)C(O)c1ccc(Br)cc1 (configuration not stated)	> 300 µM	> 300 µM	> 300 µM
Cc1ocnc1C(=O)Nc1ccc2c(c1)NCCC2	> 300 µM	> 300 µM	> 300 µM
NCc1cccc(-c2ccccn2)n1	200 µM (≈ 37 µg/mL)	300 µM (≈ 55.6 µg/mL)	> 300 µM
